Molecular target: T1, mouse P2RX7 (mP2RX7) (Mus musculus, UniProt Q9Z1M0)
T1 construct: expressed in transfected cells; host or cells: HEK cells
T1 sequence (Q9Z1M0 1-595): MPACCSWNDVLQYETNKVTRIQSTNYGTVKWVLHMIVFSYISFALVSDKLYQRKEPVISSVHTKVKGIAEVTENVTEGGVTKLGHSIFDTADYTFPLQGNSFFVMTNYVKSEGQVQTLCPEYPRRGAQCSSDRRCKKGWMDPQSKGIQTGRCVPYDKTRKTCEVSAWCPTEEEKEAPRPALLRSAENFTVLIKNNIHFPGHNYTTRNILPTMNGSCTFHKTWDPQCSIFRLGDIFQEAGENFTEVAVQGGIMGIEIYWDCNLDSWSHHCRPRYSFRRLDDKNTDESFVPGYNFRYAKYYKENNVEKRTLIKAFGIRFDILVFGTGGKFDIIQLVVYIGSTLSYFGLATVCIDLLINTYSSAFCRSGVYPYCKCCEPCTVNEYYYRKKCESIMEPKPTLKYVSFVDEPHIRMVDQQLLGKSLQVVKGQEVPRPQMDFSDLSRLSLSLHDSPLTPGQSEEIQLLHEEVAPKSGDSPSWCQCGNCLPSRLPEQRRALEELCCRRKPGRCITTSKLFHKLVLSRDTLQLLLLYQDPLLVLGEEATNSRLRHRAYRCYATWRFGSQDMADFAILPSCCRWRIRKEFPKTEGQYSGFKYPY
Assay: Channel activity (Fluo4-AM) and large pore opening (Topro3) by flow cytometry, HEK cells expressing mP2RX7, 1 h BzATP
Assay type: cell-based
Description: Calcium channel activity (Fluo4AM probe) and large pore opening (Topro3 probe) were analysed by FACS on mP2RX7 HEK cells. Cells were non stimulated (NS) or treated with BzATP (500 μM) alone or in the presence of HEI2314, HEI2328, HEI2333 or HEI2336 (used at 50 μM).
Calcium channel activity (Fluo4AM probe) and large pore opening (Topro3 probe) were analysed by FACS on mock and mP2RX7 HEK cells. Cells were non stimulated (NS) or treated with BzATP (500 μM) alone or in the presence of HEI2328 used at 50 μM.
2.1. […] Cation channel activity is assayed with the Fluo4 AM (Invitrogen) probe and opening of large pore with Topro3 (Invitrogen). In each experiment 2×10^6 cells were incubated with 50 nM Fluo4-AM for 30 minutes. After washing, cells were treated with 500 μM BzATP (3′-O-(4-benzoyl)benzoyl ATP) for 1 h, or non-treated, in presence of the compounds of the invention at 50 μM. When indicated, the Topro3 probe (8.5 nM) was added during the 1 h stimulation time. Fluorescence was assayed by flow cytometry.

[1] = cells expressing mP2RX7, BzATP 500 μM

Compound	Topro3 entry (large pore opening) (compound 50 μM, BzATP 500 μM, 1 h, mP2RX7 HEK cells)	Topro3 positive cells (BzATP 500 μM only, 1 h, mP2RX7 cells) [%]	activity in Mock cells (Mock HEK cells (no P2X receptors))	increase of Ca2+ entry [1] [fold]	increase of large pore opening [1] [fold]
O=C(NCc1ccc(Cl)cc1Cl)[C@@H]1CCC(=O)N1C(=O)Nc1ccccc1Cl [HEI2314, (S)—N^1-(2-Chlorophenyl)-N^2-(2,4-dichlorobenzyl)-5-oxopyrrolidine-1,2-dicarboxamide]	increase Topro3 entry only in presence of BzATP	–	–	–	–
Nc1ncnc2c1ncn2[C@@H]1O[C@H](COP(=O)(O)OP(=O)(O)OP(=O)(O)O)[C@@H](OC(=O)c2ccc(C(=O)c3ccccc3)cc2)[C@H]1O [BzATP, 3′-O-(4-benzoyl)benzoyl ATP, reference compound]	–	24.7	inactive	15	4
